One may read the Ki as the dissociation constant of the complex between target and ligand, obtained from inhibition or displacement. The low end stands for tighter binding, the high end for weaker binding.

Consider one compound from article PMC12302426, “Dihydrokoumine, a dual-target analgesic with reduced side effects isolated from a traditional Chinese medicine” (Journal of Advanced Research, 2024).

The test system of one data set is C57BL/6 male mice. Put plainly: Rotarod test (motor coordination, sedation). The following applies: DK 20, 40 mg/kg i.p., one hour before testing. Type of data set: in vivo. As to the method:
Motor coordination were evaluated by the rotarod test, which was conducted as previously reported. Six-week-old C57BL/6 male mice were used in […] (n = 6). Mice underwent a three-day training period, twice daily (9:00 am and 3:00 pm), to make them stay balanced on the rotarod apparatus (Columbus), with a 3 cm diameter and rotating at a constant 11 rpm. Motor coordination was evaluated through mice's endurance on the rotating rod. Selection criteria included mice maintaining balance for 60–120 s. On the fourth day, mice were intraperitoneally injected (5 mL/kg) with a solvent mixture, morphine (5 mg/kg), or DK (20, 40 mg/kg) one hour before testing. Latency to fall (in seconds) was recorded after placing mice on the rotarod, with a 120-second cut-off time.
(In general: In the rotarod test animals must keep their balance on a rotating rod.)

In a further data set the test system is C57BL/6 mice. Description: Acute toxicity study. The class given is in vivo. The following applies: 200 mg/kg daily for 14 days. As to the method: Sixteen C57BL/6 mice (25 ± 1 g, 8 males, 8 females) were used in acute toxicity studies. The mice were randomly divided into 2 groups (half male, half female each group) and treated with either solvent mixture (control) or 200 mg/kg DK (DK-treated) daily for 14 days. Throughout the study, the animals were monitored for motor activity, mortality, and body weight changes, which were recorded every other day.
At the end of the experiment (24 h after final DK administration), blood samples were collected via direct heart puncture, allowed to clot at room temperature, and centrifuged at 3000 rpm for 15 min. Serum was separated and stored at […] for biochemical analysis. Liver and renal injury markers, including aspartate transaminase (AST), alanine transaminase (ALT), UREA, CREA, albumin (ALB), urine acid (UA) and Glucose (Glu), were measured using an automatic biochemical analyzer (Chemray 240, 420 and 800, Rayto, China).
Following blood collection, the mice were sacrificed, and the heart, liver, spleen, lung and kidney were excised. These tissues were fixed in 4 % paraformaldehyde (PFA), dehydrated gradually using ethanol (50–100 %), and embedded in paraffin after clearing with xylene. Sections ([…] thick) were stained with hematoxylin and eosin (HE) for examination.

Another data set has as its target T1, MOR (Homo sapiens, UniProt P35372).
T1 construct: expressed in transfected cells; host or cells: HEK293 cell membranes
Description: Radioligand binding assay, [3H] DAMGO. The following applies: [3H] DAMGO 0.5 nM. As to the method:
Radioligand binding assays were conducted using MicroBeta2 (PerkinElmer, USA). Membrane protein preparations MOR and M3R were each prepared at a concentration of 2.5 µg/well. The radio ligands [^3H] DAMGO (specific for MOR) and [^3H]-NMS (specific for M3R) were prepared at concentrations of 0.5 nM and 0.2 nM, respectively. […] For each well, 1 µL of the serially diluted test compounds was transferred, followed by the addition of 100 µL of membrane stock solution and 100 µL of radioligand. The plates were sealed and shaken at 300 rpm at room temperature for one hour. Upon completion of the binding assay, the contents of each well were filtered through Unifilter-96 GF/C filter plates (PerkinElmer, USA). The filter plates were dried for one hour at 50°C and sealed. The trapped ^3H (tritium) on the filters was then quantified using the MicroBeta2. The percentage of inhibition or binding was subsequently calculated.

For a further data set, the target named is T2, adrenergic receptor β2 (Homo sapiens, UniProt P07550).
T2 construct: endogenous in cells; host or cells: A431
Description: DMR desensitization assay, A431, probe isoprenaline. The class given is cell-based. The following applies: 100 μM DK. As to the method: (§1) DMR assays were performed using an Epic® BT system (Corning, NY, USA). All used cell lines were directly seeded in Epic 384-well biosensor microplates with a seeding density of 25,000 cells per well. After being cultured for about 22 h, the cells formed a monolayer with a confluency of about 95 % in the cell culture medium. Then the cells were manually washed using assay buffer (1 × HBSS buffer, 10 mM HEPES, pH = 7.4) and maintained in 30 μL of the assay buffer for 1 h. All samples were dissolved in DMSO and diluted freshly with the assay buffer containing 0.1 % BSA.
(§2) The receptor selectivity was evaluated against a set of G protein-coupled receptors (GPCRs), including opioid receptor (Delta/Kappa/NOP), dopamine receptor (D1/D2), orphan receptor (GPR35), adrenergic receptor (α2A/β2), serotonin receptor (5HT2A), histamine receptor (H1) and cannabinoid receptor (CB1). Following a 1-hour pretreatment with DK, a 2-min baseline was established before introducing probes and monitoring DMR signals for another hour. The cells and probes were as follows: Delta, HEK293-Delta, SNC162; Kappa, HEK293-Kappa, ICI199441; NOP, HEK293-NOP, MCOPPB; D1, HEK293-D1, dopamine; D2, HEK293-D2, dopamine; GPR35, CHO-K1-hGPR35, zaprinast; 5HT2A, HEK293-5HT2A, 5-hydroxytryptamine; α2A, HEK293-α2A, L-Noradrenaline; β2, A431, isoprenaline; H1, A431, histamine; CB1, CHO-K1-CB1, CP 55940. […]

The target in a further data set is T3, histamine receptor H1 (Homo sapiens, UniProt P35367).
T3 construct: endogenous in cells; host or cells: A431
Description: DMR desensitization assay, A431, probe histamine. Type of data set: cell-based. The following applies: 100 μM DK. As to the method:
as §1, §2

T1 sequence (P35372 whole entry): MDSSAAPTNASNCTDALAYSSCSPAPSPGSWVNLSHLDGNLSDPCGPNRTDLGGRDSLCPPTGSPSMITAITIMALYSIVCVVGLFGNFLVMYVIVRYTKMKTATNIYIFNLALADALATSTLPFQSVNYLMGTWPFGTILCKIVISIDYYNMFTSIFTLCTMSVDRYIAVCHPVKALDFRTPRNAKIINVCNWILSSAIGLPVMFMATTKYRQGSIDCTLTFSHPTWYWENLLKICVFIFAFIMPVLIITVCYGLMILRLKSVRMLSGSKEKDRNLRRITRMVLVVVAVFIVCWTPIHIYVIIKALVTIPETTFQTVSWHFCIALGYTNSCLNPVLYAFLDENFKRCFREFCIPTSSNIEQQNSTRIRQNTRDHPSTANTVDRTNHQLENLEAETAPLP
T3 sequence (P35367 whole entry): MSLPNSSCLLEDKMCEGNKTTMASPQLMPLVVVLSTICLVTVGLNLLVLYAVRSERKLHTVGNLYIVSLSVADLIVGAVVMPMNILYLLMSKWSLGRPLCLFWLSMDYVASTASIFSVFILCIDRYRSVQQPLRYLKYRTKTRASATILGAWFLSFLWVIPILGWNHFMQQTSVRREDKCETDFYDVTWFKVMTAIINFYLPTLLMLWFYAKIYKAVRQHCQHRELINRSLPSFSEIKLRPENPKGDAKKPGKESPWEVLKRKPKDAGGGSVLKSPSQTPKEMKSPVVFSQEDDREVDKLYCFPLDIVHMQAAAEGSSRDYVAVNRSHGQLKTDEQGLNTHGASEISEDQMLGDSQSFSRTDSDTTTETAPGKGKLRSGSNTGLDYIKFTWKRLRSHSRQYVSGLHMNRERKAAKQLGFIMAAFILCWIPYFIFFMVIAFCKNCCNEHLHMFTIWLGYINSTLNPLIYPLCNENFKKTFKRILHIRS
T2 sequence (P07550 whole entry): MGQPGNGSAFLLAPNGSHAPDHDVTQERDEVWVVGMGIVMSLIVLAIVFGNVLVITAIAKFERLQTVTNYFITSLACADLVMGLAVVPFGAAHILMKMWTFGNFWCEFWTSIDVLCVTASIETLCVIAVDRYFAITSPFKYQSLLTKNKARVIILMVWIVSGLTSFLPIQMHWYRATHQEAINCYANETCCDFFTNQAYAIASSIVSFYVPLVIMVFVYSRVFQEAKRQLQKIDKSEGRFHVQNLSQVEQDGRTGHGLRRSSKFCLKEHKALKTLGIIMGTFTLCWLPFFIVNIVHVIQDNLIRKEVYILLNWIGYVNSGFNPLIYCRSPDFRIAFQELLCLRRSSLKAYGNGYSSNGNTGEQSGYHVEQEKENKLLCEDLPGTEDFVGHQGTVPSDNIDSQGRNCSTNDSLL

In the case of `C=CC12CN(C)C3CC14c1ccccc1NC4C1CC2C3CO1` (stereo not drawn) [DK], the “sedative effect (locomotion, latency to fall)” value in the data set on C57BL/6 male mice was “not a sedative at the tested doses”. In the data set with C57BL/6 mice, the body weight gain result is “no significant differences between DK-treated and control groups”; the “organ coefficients (heart, liver, spleen, lung, kidney)” value is given as “comparable between the two groups”; the “serum biochemical indicators and histological analysis of major organs (HE staining)” value is on record as “no significant structural or biochemical differences”; the “visible abnormalities of major organs” value is “No visible abnormalities were detected in the major organs”. On MOR, the affinity, expressed as Ki, was 0.0857 ± 0.0361 µM and the “efficacy (maximal inhibition of radioligand binding)” value is 100%. Moreover, at adrenergic receptor β2, the “reduction of probe DMR response (desensitization)” value was “almost unable to reduce the response”. Also, the “reduction of probe DMR response (desensitization)” value at histamine receptor H1 is listed as “almost unable to reduce the response”.
